Results reported in ChEMBL document CHEMBL1201862, “PubChem BioAssay data set” (2004).
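Step 1: Grow cells in 96-well plates. Step 2: Expose to compound for 48 hours at 5 concentrations. Step 3: Interpolate endpoints linearly; if unreached, use highest concentration. GI50: concentration for 50% inhibition of growth.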 Active and inactive are the calls of the source. Cut-off read from the data, not from the text of the source: active = GI50 up to about 1.1 µM and inactive = higher.

Columns and labels:
Assay in all cases: NCI tumour cell line growth inhibition, 48 h
PC-3 = system: PC-3
RPMI-8226 = system: RPMI-8226
HOP-92 = system: HOP-92
MCF7 = system: MCF7
ACHN = system: ACHN
TK-10 = system: TK-10
NCI/ADR-RES = system: NCI/ADR-RES
SK-MEL-2 = system: SK-MEL-2
NCI-H460 = system: NCI-H460
SR = system: SR
CAKI-1 = system: CAKI-1
M14 = system: M14
HCC 2998 = system: HCC 2998
MDA-N = system: MDA-N
DLD-1 = system: DLD-1
KM-20L2 = system: KM-20L2
M19-MEL = system: M19-MEL
DMS-114 = system: DMS-114
LXFL 529 = system: LXFL 529
SNB-78 = system: SNB-78

SMILES	GI50 (PC-3)	GI50 (RPMI-8226)	GI50 (HOP-92)	GI50 (MCF7)	GI50 (ACHN)	GI50 (TK-10)	GI50 (NCI/ADR-RES)	GI50 (SK-MEL-2)	GI50 (NCI-H460)	GI50 (SR)	GI50 (CAKI-1)	GI50 (M14)	GI50 (HCC 2998)	GI50 (MDA-N)	GI50 (DLD-1)	GI50 (KM-20L2)	GI50 (M19-MEL)	GI50 (DMS-114)	GI50 (LXFL 529)	GI50 (SNB-78)
CN(CCO)Cc1ncccc1O	> 100 µM (inactive)	> 100 µM (inactive)	> 100 µM (inactive)	> 100 µM (inactive)	> 100 µM (inactive)	> 100 µM (inactive)	> 100 µM (inactive)	> 100 µM (inactive)	> 100 µM (inactive)	> 100 µM (inactive)	> 100 µM (inactive)	> 100 µM (inactive)								
CON(C)C(C#N)=C(C#N)C#N	> 10 µM (inactive)	> 10 µM (inactive)		> 10 µM (inactive)	> 10 µM (inactive)	> 10 µM (inactive)	> 10 µM (inactive)	> 10 µM (inactive)	> 10 µM (inactive)	> 10 µM (inactive)	> 10 µM (inactive)	> 10 µM (inactive)	> 10 µM (inactive)	> 10 µM (inactive)						
O=C1c2ccccc2N(O)C1(c1ccccc1)C1CCCC=C1N1CCOCC1 (stereo not given)		17.1 µM (inactive)			> 100 µM (inactive)	> 100 µM (inactive)			> 100 µM (inactive)	28.4 µM (inactive)	> 100 µM (inactive)	> 100 µM (inactive)	> 100 µM (inactive)		> 100 µM (inactive)	> 100 µM (inactive)	> 100 µM (inactive)	50.1 µM (inactive)	68.5 µM (inactive)	> 100 µM (inactive)
O=C(Nn1c(-c2ccccc2)nc2ccccc2c1=O)c1ccc(CS)cc1	20.2 µM (inactive)	33.2 µM (inactive)	34.9 µM (inactive)	29.8 µM (inactive)	54.5 µM (inactive)	> 100 µM (inactive)			> 100 µM (inactive)	19.5 µM (inactive)		47.6 µM (inactive)	> 100 µM (inactive)	61.2 µM (inactive)						
COc1cccc(OCC(=N/NC(=O)c2ccncc2)/N=C/c2ccncc2)c1	> 100 µM (inactive)	> 100 µM (inactive)	> 100 µM (inactive)	> 100 µM (inactive)	> 100 µM (inactive)	> 100 µM (inactive)	> 100 µM (inactive)	> 100 µM (inactive)	> 100 µM (inactive)		> 100 µM (inactive)	> 100 µM (inactive)	> 100 µM (inactive)	> 100 µM (inactive)						
CC(=O)NNc1nc(C)c(C(=O)NNC(=O)C(=O)Nc2ccc([N+](=O)[O-])cc2C#N)s1		> 100 µM (inactive)			83.6 µM (inactive)	> 100 µM (inactive)		> 100 µM (inactive)	> 100 µM (inactive)	67.1 µM (inactive)		> 100 µM (inactive)	> 100 µM (inactive)			> 100 µM (inactive)	> 100 µM (inactive)	> 100 µM (inactive)	44.3 µM (inactive)	> 100 µM (inactive)
CC1NC(=O)C(C)C(c2ccccc2)N(N=O)C1c1ccccc1 (stereo not given)		33.6 µM (inactive)	39.7 µM (inactive)	50 µM (inactive)			> 69.8 µM (inactive)	> 100 µM (inactive)	> 61.7 µM (inactive)		> 100 µM (inactive)		52.4 µM (inactive)		72.1 µM (inactive)	> 100 µM (inactive)		48.5 µM (inactive)		> 100 µM (inactive)
CC1=CC(C)C(C)N(CC2=NCCN2)c2ccccc21 (stereo not given)	46.3 µM (inactive)	38.7 µM (inactive)	11 µM (inactive)	53.7 µM (inactive)	97.9 µM (inactive)	54.2 µM (inactive)	99.5 µM (inactive)	44.8 µM (inactive)	60.8 µM (inactive)	26 µM (inactive)	> 86.9 µM (inactive)	17.8 µM (inactive)	17.9 µM (inactive)	52.5 µM (inactive)						
CC(=O)OCc1c(C)c2ccccc2n1C(C)=O			98.6 µM (inactive)		25.3 µM (inactive)	30.5 µM (inactive)		21 µM (inactive)		36.1 µM (inactive)	> 100 µM (inactive)	> 100 µM (inactive)	95.3 µM (inactive)			53 µM (inactive)	53 µM (inactive)	22.6 µM (inactive)		
Cn1cc(-c2csc(-c3cn(C)c4ccccc34)n2)c2ccccc21	21.9 µM (inactive)	20.7 µM (inactive)	20.8 µM (inactive)	45.5 µM (inactive)	21.6 µM (inactive)	27 µM (inactive)	> 100 µM (inactive)	38.8 µM (inactive)	26.5 µM (inactive)		17.8 µM (inactive)	26.7 µM (inactive)		24.9 µM (inactive)						
Cn1c2ccc([N+](=O)[O-])cc2c(=O)n1Cc1ccccc1F	55.7 µM (inactive)	> 100 µM (inactive)	27.7 µM (inactive)	> 100 µM (inactive)	53.3 µM (inactive)	34 µM (inactive)	23 µM (inactive)	53.8 µM (inactive)	40.1 µM (inactive)	59.8 µM (inactive)	99.3 µM (inactive)	25.4 µM (inactive)	70.8 µM (inactive)	27.4 µM (inactive)						
ClCc1ccc2ccc3ccc(CCl)nc3c2n1		1.46 µM (inactive)	2.09 µM (inactive)	0.955 µM (active)			1.71 µM (inactive)	1.77 µM (inactive)	4.62 µM (inactive)				4.11 µM (inactive)		1.5 µM (inactive)	4.1 µM (inactive)	1.76 µM (inactive)	1.87 µM (inactive)		2.88 µM (inactive)
CC1=C2C3OC(=O)C(C)C3CCC2(C)C=C/C1=N\c1ccccc1 (stereo not given)			> 100 µM (inactive)	> 100 µM (inactive)			> 100 µM (inactive)	> 100 µM (inactive)	> 100 µM (inactive)				> 100 µM (inactive)		> 100 µM (inactive)	> 100 µM (inactive)	> 100 µM (inactive)	> 100 µM (inactive)		> 100 µM (inactive)
Cc1cc(C(=O)NCCN(C)C)c2nc3ccccc3cc2c1		1.55 µM (inactive)	1.45 µM (inactive)	1.55 µM (inactive)			1.1 µM (active)	2.69 µM (inactive)	0.372 µM (active)		0.33 µM (active)		3.67 µM (inactive)		1.96 µM (inactive)	0.729 µM (active)	1.85 µM (inactive)	1.04 µM (active)		4.45 µM (inactive)
CC1CC/C(=C\c2ccc(N(C)C)cc2)C2=C1C(c1ccc(N(C)C)cc1)NC(=S)N2 (stereo not given)	40.3 µM (inactive)	> 100 µM (inactive)		> 100 µM (inactive)	> 100 µM (inactive)	> 100 µM (inactive)	> 100 µM (inactive)	> 100 µM (inactive)			> 100 µM (inactive)	> 100 µM (inactive)		> 100 µM (inactive)						
CN(C)C(=O)NCCN1CCCCCc2ccccc21	> 100 µM (inactive)	> 100 µM (inactive)	32.4 µM (inactive)	> 100 µM (inactive)	> 100 µM (inactive)	> 100 µM (inactive)	> 100 µM (inactive)	89.7 µM (inactive)	> 100 µM (inactive)	> 100 µM (inactive)	> 100 µM (inactive)	46.3 µM (inactive)	> 100 µM (inactive)	> 100 µM (inactive)						
CCN(CC)c1cccc2c1/C(=N/O)CCCC2		56.2 µM (inactive)			> 100 µM (inactive)	> 100 µM (inactive)		> 100 µM (inactive)	74.5 µM (inactive)	> 100 µM (inactive)						> 100 µM (inactive)	> 100 µM (inactive)	52.8 µM (inactive)	> 100 µM (inactive)	> 100 µM (inactive)
CC[C@H](O)[C@H](C)C=C1SCCCS1	> 100 µM (inactive)	> 100 µM (inactive)	> 100 µM (inactive)	> 100 µM (inactive)	> 100 µM (inactive)	> 100 µM (inactive)	> 100 µM (inactive)	> 100 µM (inactive)		> 100 µM (inactive)	> 100 µM (inactive)	> 100 µM (inactive)	> 100 µM (inactive)	> 100 µM (inactive)						
CCOC(=O)c1cc(Br)c(-c2cc(C)no2)[nH]1	28.4 µM (inactive)	13.9 µM (inactive)	29.9 µM (inactive)		28.8 µM (inactive)	46.5 µM (inactive)	30.4 µM (inactive)	34.4 µM (inactive)	21.1 µM (inactive)			39.7 µM (inactive)		23.2 µM (inactive)						
O=C1C(Cl)N(c2ccccc2[N+](=O)[O-])C1c1c[nH]c2ccccc12 (stereo not given)		> 100 µM (inactive)	81.3 µM (inactive)			> 100 µM (inactive)		> 100 µM (inactive)	> 100 µM (inactive)	> 100 µM (inactive)		> 100 µM (inactive)				> 100 µM (inactive)	> 100 µM (inactive)	> 100 µM (inactive)	> 100 µM (inactive)	
O=C1C=CC(=O)c2c(Cl)ccc(O)c21		5.66 µM (inactive)	2.75 µM (inactive)	13.9 µM (inactive)			18.7 µM (inactive)	37.8 µM (inactive)	> 65.9 µM (inactive)		11.1 µM (inactive)		> 100 µM (inactive)		13.9 µM (inactive)	13.8 µM (inactive)	16.3 µM (inactive)	16.8 µM (inactive)		22 µM (inactive)
COc1cc2c(ccc3c4cc(OC)c(OC)cc4c[n+](C)c23)cc1O [FAGARONINE]		> 65.3 µM (inactive)	23.6 µM (inactive)	4.15 µM (inactive)			63.2 µM (inactive)	41.4 µM (inactive)	14.7 µM (inactive)		61.7 µM (inactive)		34.4 µM (inactive)		67.5 µM (inactive)	> 75 µM (inactive)	23.9 µM (inactive)	2.37 µM (inactive)		26.1 µM (inactive)
